Laboratory results from US4481139A, “Peptide antagonists of substance P” (Board of Regents, The University of Texas System, priority 1983, dated 1984).
Several values for one entry are separate records, joined by “and”; a condition that tells them apart may be missing. Identical values can stand only once. Non-standard residues stand in square brackets, D forms with d. Residues, ends and D or L forms follow the SMILES beside them. pGlu = O=C1CC[C@@H](C(=O)O)N1

What was measured:
[1] = tested on: terminal portion of the guinea pig ileum; test: Antagonistic activity against substance P on the terminal portion of the guinea pig ileum; type: cell-based; details: analog at 10^-4 (concentration unit not given)
Procedure: The antagonistic activities of the analogs were evaluated using the terminal portion of the guinea pig ileum, as described by Yamaguchi et al. [Acta Chem. Scand. B33, 63 (1979)]. The biological assay data are in Table IV.
The sequence of substance P (SP) is expressed in the top of Table IV. The antagonistic activity is defined as the fold-increase in the concentration of SP in the presence of the analog to give 50% of the maximal response which is elicited by SP alone. The sequences of the analogs which were designed and synthesized are in Table IV. The eleven amino acids of SP are spaced across the top line to facilitate visual comparison of the amino acids in SP with those in the analogs. For example, analog I is also spaced across the page to show the sequence relationship to SP. On this basis, analog I is H-Arg^1,Pro^2,Lys^3,Pro^4,D-Phe^5,Gln^6,D-Trp^7,Phe^8 D-Trp^9,Leu^10,Leu^11 -NH2, but on the basis of conventional peptide nomenclature, analog I is expressed as [D-Phe^5,D-Trp^7,D-Trp^9,Leu^11 ]-SP5-11.

[2] = SP = 1; cited from earlier work
[3] = Solubility in 50% ethanol (footnote to Table IV); type: physicochemical

Question: For `CC(C)C[C@H](NC(=O)[C@@H](Cc1c[nH]c2ccccc12)NC(=O)[C@H](Cc1ccccc1)NC(=O)[C@@H](Cc1c[nH]c2ccccc12)NC(=O)[C@H](CCC(N)=O)NC(=O)[C@@H]1CCC(=O)N1)C(=O)N[C@H](C(N)=O)[C@@H](C)O` [Analog III, [Glp^5,D-Trp^7,D-Trp^9,Thr^11]--SP5-11] ([pGlu]Q[dW]F[dW]LT-NH2), which “Fold increase in conc. of SP in the presence of the analog to give 50% of the maximal response elicited by SP alone” value [1] is on record?
Answer: 2 fold

Question: With `CC(C)C[C@H](NC(=O)[C@H](CC(C)C)NC(=O)[C@@H](Cc1c[nH]c2ccccc12)NC(=O)[C@H](Cc1ccccc1)NC(=O)[C@@H](Cc1c[nH]c2ccccc12)NC(=O)[C@H](CCC(N)=O)NC(=O)[C@@H]1CCC(=O)N1)C(N)=O` [Analog V, [Glp^5,D-Trp^7,D-Trp^9,Leu^11]--SP5-11] ([pGlu]Q[dW]F[dW]LL-NH2) as the compound, how does the “Fold increase in conc. of SP in the presence of the analog to give 50% of the maximal response elicited by SP alone” value [1] read?
Answer: 17 fold

Question: For “Glp-Gln-Phe-Phe-Gly-Leu-Met-NH2 ([pGlu]QFFGLM-NH2; SMILES CSCC[C@H](NC(=O)[C@H](CC(C)C)NC(=O)CNC(=O)[C@H](Cc1ccccc1)NC(=O)[C@H](Cc1ccccc1)NC(=O)[C@H](CCC(N)=O)NC(=O)[C@@H]1CCC(=O)N1)C(N)=O) [truncated heptapeptide analog of SP from Yanaihara et al]”, which “Relative activity in comparison with SP as 1” value [2] is on record?
Answer: 1.7

Question: What does the source list for “[D-Phe^5,D-Trp^7,D-Trp^9,Leu^11 ]-SP5-11 [Analog I]”?
Answer: Solubility [3]: difficulty soluble in 50% ethanol; Fold increase in conc. of SP in the presence of the analog to give 50% of the maximal response elicited by SP alone [1]: > 200 fold and 200 fold
